Values quoted from earlier work as cited in paper PMC10878532, “Sperm Toolbox—A selection of small molecules to study human spermatozoa” (PLOS ONE, 2024).
Counter-ions that a name gives are not always drawn.

system: spermatozoa; design: method as in per compound as listed in column References of Table 1; settings: summaries of reported effects; ref per compound as listed in Table 1; cited from earlier work

Molecule | Published Phenotype
C[C@@H]1O[C@@H](O[C@H]2C[C@@H](O)[C@]3(CO)[C@H]4[C@H](O)C[C@]5(C)[C@@H](C6=CC(=O)OC6)CC[C@]5(O)[C@@H]4CC[C@]3(O)C2)[C@H](O)[C@H](O)[C@H]1O [Ouabain] | Reduces sperm motility
CCN(CC)C(=S)SSC(=S)N(CC)CC [Disulfiram] | immotile sperm; spermicidal
COc1ccc(CCCN2CCC(COC(c3ccccc3)c3ccccc3)CC2)cc1 [UK 78282 hydrochloride] | Modulates Ca^2+ response
C=C[C@@]1(C)CC(=O)[C@]2(O)[C@@]3(C)[C@@H](O)CCC(C)(C)[C@@H]3[C@H](O)[C@H](OC(C)=O)[C@@]2(C)O1 [Forskolin] | Stimulates acrosome reaction
CC(C)(C)c1ccc(S(=O)(=O)Nc2cnc3[nH]c(C(=O)N[C@H]4CCC[C@H]4O)c(-c4ccccc4)c3c2)cc1 [compound 68853496] | Patent; sAC inhibitor
NVP-AEW541 | Inhibition of hyperactivity
O=C(O)c1ccc(/C=C2/SC(=S)N(c3cccc(C(F)(F)F)c3)C2=O)cc1 [CTFRinh-172] | Blocks progesterone induced acrosome reaction; blocks sperm hyperactivation; blocks recombinant ZP3 induced acrosome reaction
O.O.O.OO.OO.[K+].[OH-].[V].c1cnc2c(c1)ccc1cccnc12 [bpV(phen)] | Blocks progesterone induced acrosome reaction; blocks progesterone induced Ca^2+ response
O=c1c(-c2ccc(O)cc2)coc2cc(O)cc(O)c12 [Genistein] | Blocks progesterone induced acrosome reaction; blocks progesterone induced Ca^2+ response
CO[C@H]1[C@@H](OC)C[C@H](C)[C@@H](OC)C2=CC(=O)C=C(NC(=O)/C(C)=C/C=C\[C@H](OC)[C@@H](OC(N)=O)/C(C)=C/[C@@H]1C)C2=O [Herbimycin a] | Blocks progesterone induced acrosome reaction; blocks progesterone induced Ca^2+ response
Cc1ccc(S(=O)(=O)c2c(N)n(CC(O)c3ccc([N+](=O)[O-])cc3)c3nc4ccccc4nc23)cc1 (stereo not shown) [Oprea1_544341] | Reduces sperm motility; role of glycolysis in sperm motility
CCOCc1nc2c(N)nc3ccccc3c2n1CC(C)(C)O [Resiquimod] | Reduction of sperm motility; only sperm with X chromosome
CC(C)Cn1c(=O)n(C)c(=O)c2[nH]cnc21 [IBMX] | Modulates capacitation
CCCCC/C=C\C/C=C\C/C=C\C/C=C\CCCC(=O)NCCO [Anandamide] | Reduces sperm motility
O=C(O)c1cccnc1Nc1cccc(C(F)(F)F)c1 [Niflumic acid] | Blocks acrosome reaction induced by recombinant rhZP3
Cn1c(=O)c2c(-c3ccccc3)n3c(c2n(C)c1=O)[C@H](c1ccc(Br)o1)Oc1ccc(C(=O)O)cc1-3 [BPO-27] | CTFR inhibitor patent
Oc1c(Cl)cc(Cl)c(Cl)c1Cc1c(O)c(Cl)cc(Cl)c1Cl [Hexachlorophene] | Reduces sperm motility; blocks sAC
COc1ccc2nc([S@@+]([O-])Cc3ncc(C)c(OC)c3C)[nH]c2c1 [Esomeprazole] | Reduces sperm motility
N=C(N)c1ccc2cc(OC(=O)c3ccc(N=C(N)N)cc3)ccc2c1 [Nafamostat] | Interferes with liquefaction; reduces sperm motility
CC(C)(O)c1ccn2c(-c3ccc(F)c(-c4ccc(F)cc4C#N)c3)cnc2c1F [TP 003] | Enhances sperm motility
O=S(=O)(NCCNC/C=C/c1ccc(Br)cc1)c1cccc2cnccc12 [H 89 dihydrochloride] | Evokes Ca^2+ signaling in sperm cells
CN(C)CCCn1cc(C2=C(c3c[nH]c4ccccc34)C(=O)NC2=O)c2ccccc21 [GF 109203X] | Blocks progesterone induced acrosome reaction; blocks progesterone induced Ca^2+ response
